US20250177405A1, “METHODS OF TREATING NEUROLOGICAL AND CARDIOVASCULAR CONDITIONS” (ASTROCYTE PHARMACEUTICALS, INC., priority 2021, published 2025)
Where two headings read alike, the source gives them in different places.

Tests used:
[1] = pharmacokinetics of I-1 after intravenous bolus in normal and tMCAO nonhuman primates; assay type: in vivo, nonhuman primate; details: for C0 / clearance / half-life / Vd: monkey, plasma, iv, 0.5 mg/kg, intravenous bolus 0.5 mg/kg; for Vd: read-out: Vdss
[2] = pre-efficacy pharmacokinetic study, intravenous bolus/constant rate infusion in tMCAO cynomolgus monkeys; assay type: in vivo, cynomolgus monkey; details: tMCAO (n = 1); for Kp at 22 h: cynomolgus monkey, CSF/plasma, intravenous, read-out: CSF/Plasma At 22-hour End of Dosing
Protocol: Macaques received a bolus dose of vehicle (40% PEG400 in 0.9% saline) or I-1 into a saphenous vein 2 h after occlusion (2 h prior to restoration of MCA blood flow), followed immediately by a 22 h intravenous infusion. This dosing regimen was designed to rapidly achieve and maintain pre-determined plasma and cerebrospinal fluid (CSF) steady-state concentrations of I-1 based on its pharmacokinetics previously determined in näive and MCA occluded macaques (Tables A-C below).
We then proceeded to our key preclinical stroke efficacy model in nonhuman primates. Pre-efficacy pharmacokinetic studies obtained plasma and CSF pharmacokinetic data. The I-1 CSF concentrations were combined with receptor affinity data to estimate receptor occupancy, and the combination of CSF concentrations and associated receptor occupancies were used to set dose regimens for the efficacy study.

[3] = physiological parameter assessment during tMCAO study; assay type: in vivo, Macaca fascicularis
Protocol: Body weight, core body temperature, mean arterial blood pressure (MABP), heart rate, pO2, pCO2, sO2 and blood pH were assessed prior to and after tMCAO at designated intervals in relation to reported normal physiological ranges for each parameter (references 22-23).

[4] = system: cynomolgus monkey model of transient middle cerebral artery occlusion (tMCAO); experiment: Neurologic Deficit Score (NDS) after tMCAO; assay type: in vivo, Macaca fascicularis; details: study Days 1 to 5, I-1-treated composite versus vehicle, p=0.11
Excerpt: Twenty-four hours and 5 days after occlusion, neurologic deficits were scored using the Neurologic Deficits Score (NDS) as described elsewhere (reference 25). The NDS was considered as a secondary efficacy endpoint.

[5] = system: photothrombosis-induced stroke in mice; experiment: mouse photothrombotic stroke model; assay type: in vivo
Protocol: Photothrombosis-induced Stroke: Photothrombosis is performed as described in Zheng et al 2010 (PloS One 5 (12): e14401). In brief, Rose Bengal is a fluorescent dye that when injected into the vasculature and excited, generates singlet oxygen that damages the endothelial wall and induces a local thrombosis (clot). Using this technique, mice are given a 0.1 mL tail-vein injection of sterilized Rose Bengal (RB, Sigma, U.S.A.) in artificial cerebral spinal fluid (aCSF). The RB concentration is 20 mg/mL. A cortical region is centered in the imaging field and illuminated with a green laser (543 nm, 5 mW) using a 0.8-NA 40× water-immersion objective (Nikon, Tokyo). The clot formation is monitored in real time until the targeted vessel or downstream capillaries are firmly occluded. […]
Animals and Photothrombosis-induced Stroke: Stroke is performed as described in Zheng et al 2010 (PloS One 5 (12): e14401). […] Depth of anesthesia is monitored and regulated according to vital signs, pinch withdrawal and eye blinks. […] Vital signs including oxygen saturation, respiratory rate, and heart rate are continuously monitored by using the MouseOx system (STARR Life Sciences). […]
Post photothrombotic infarction evaluation. The size of cerebral infarcts is evaluated using 2,3,5-Triphenyltetrazolium chloride (TTC) staining as described in Zheng et al 2010 (PloS One 5 (12): e14401). […]

[6] = bolus 0.11 mg/kg / infusion 0.0582 mg/kg/hr
[7] = bolus 1.7 mg/kg / infusion 0.9 mg/kg/hr
[8] = bolus 5.2 mg/kg / infusion 2.76 mg/kg/hr

CSc1nc(N)c2ncn([C@H]3C(O)C(O)[C@]4(CO)C[C@H]34)c2n1 (stereo in doubt) [Compound I-1]
I-1 plasma concentrations after single intravenous bolus ([1]; 8 h post-dose): below bioanalytical limits of quantitation
C0 ([1]; Normal NHP (n = 3)): 329 ng/mL
clearance ([1]; Normal NHP (n = 3)): 29 mL/min/kg
half-life ([1]; Normal NHP (n = 3)): 78 min
Vd ([1]; Normal NHP (n = 3)): 3.1 L/kg
C0 ([1]; tMCAO NHP (n = 1)): 544 ng/mL
clearance ([1]; tMCAO NHP (n = 1)): 28 mL/min/kg
half-life ([1]; tMCAO NHP (n = 1)): 90 min
Vd ([1]; tMCAO NHP (n = 1)): 3 L/kg
Kp at 22 h [2, 6]: 0.094
Kp at 22 h [2, 7]: 0.084
Kp at 22 h [2, 8]: 0.065
Actual Time-Averaged Steady-State [Plasma] [2, 6]: 25 ng/mL
Predicted Steady-State [Plasma] [2, 6]: 35 ng/mL
Actual Time-Averaged Steady-State [Plasma] [2, 7]: 363 ng/mL
Predicted Steady-State [Plasma] [2, 7]: 540 ng/mL
Actual Time-Averaged Steady-State [Plasma] [2, 8]: 1812 ng/mL
Predicted Steady-State [Plasma] [2, 8]: 1660 ng/mL
physiological parameters versus vehicle-treated group ([3]; baseline and during the study period): no clinically relevant differences
MABP or heart rate ([3]; systemic I-1 administration, tMCAO macaques): did not result in significant alterations
neurological function (NDS) change [4]: improved but statistically non-significant
efficacy in presence of the A3 antagonist MRS1523 ([5]; mouse photothrombotic stroke and TBI models): blocked
efficacy in mouse photothrombotic stroke model ([5]; mouse, in vivo): significant efficacy
